From patent publication US8927717B1, “Thiochromeno[2,3-c]quinolin-12-one derivatives, preparation method and application thereof” (National Defense Medical Center, priority 2014, dated 2015)

Columns and labels:
TOP I (Topoisomerase I) [1] = target: T1, TOP I (Topoisomerase I) (Homo sapiens, UniProt P11387); assay: TOP I mediated supercoiled DNA relaxation assay; assay type: biochemical; conditions: primary assay at 25 and/or 50 μM
T1 construct: purchased TopoGEN TG2005H
T1 sequence (P11387 1-765): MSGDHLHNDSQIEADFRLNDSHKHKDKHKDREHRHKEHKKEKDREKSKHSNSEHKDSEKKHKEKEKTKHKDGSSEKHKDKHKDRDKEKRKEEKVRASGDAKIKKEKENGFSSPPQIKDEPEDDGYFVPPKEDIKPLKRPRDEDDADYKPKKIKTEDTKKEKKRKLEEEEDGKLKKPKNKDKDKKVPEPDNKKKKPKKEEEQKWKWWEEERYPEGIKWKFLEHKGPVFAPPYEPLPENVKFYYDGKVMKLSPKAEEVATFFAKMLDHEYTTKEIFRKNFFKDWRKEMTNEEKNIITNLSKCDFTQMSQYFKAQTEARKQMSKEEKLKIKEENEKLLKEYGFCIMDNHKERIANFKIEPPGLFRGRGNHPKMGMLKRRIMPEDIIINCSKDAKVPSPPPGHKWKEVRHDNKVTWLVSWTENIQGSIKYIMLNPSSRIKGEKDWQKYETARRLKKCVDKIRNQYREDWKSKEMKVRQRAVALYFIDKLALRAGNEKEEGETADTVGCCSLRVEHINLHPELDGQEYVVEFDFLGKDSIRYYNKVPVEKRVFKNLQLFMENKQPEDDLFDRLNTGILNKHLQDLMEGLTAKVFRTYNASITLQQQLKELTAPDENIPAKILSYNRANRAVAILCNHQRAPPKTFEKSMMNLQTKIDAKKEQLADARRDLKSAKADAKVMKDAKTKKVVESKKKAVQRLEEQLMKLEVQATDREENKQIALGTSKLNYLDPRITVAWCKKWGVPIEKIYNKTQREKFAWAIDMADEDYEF
Description: According to the cell cytotoxicity, compounds 5, 7, 8, 16, 19, N2, N7, N8, N9, N14-N19, and N25 were also selected for primary TOP I and II activities assays at 25 and/or 50 μM (FIG. 2-4).

[2] = target: T2, TOP II (Topoisomerase II) (Homo sapiens, UniProt P11388); assay: TOP II-catalyzed relaxation of plasmid DNA assay; assay type: biochemical
T2 construct: purchased TopoGEN TG-2000H-1
Description: We also performed TOP II-catalyzed relaxation of plasmid DNA assays (FIG. 5-7) to evaluate if compounds could inhibit TOP II. […] The IC50 value of compounds 7, N7, N8, N14, N15, N18, and N19 were about 10, 10, 1, 10, 5, 1, and 1 μM, respectively (detect by TopoGEN TG2005H, TG-2000H-1).

TOP I (Topoisomerase I) [3] = target: T1, TOP I (Topoisomerase I); assay: TOP I mediated supercoiled DNA relaxation assay; assay type: biochemical; conditions: five different concentrations; TopoGEN TG2005H, TG-2000H-1

T2 sequence (P11388 whole entry): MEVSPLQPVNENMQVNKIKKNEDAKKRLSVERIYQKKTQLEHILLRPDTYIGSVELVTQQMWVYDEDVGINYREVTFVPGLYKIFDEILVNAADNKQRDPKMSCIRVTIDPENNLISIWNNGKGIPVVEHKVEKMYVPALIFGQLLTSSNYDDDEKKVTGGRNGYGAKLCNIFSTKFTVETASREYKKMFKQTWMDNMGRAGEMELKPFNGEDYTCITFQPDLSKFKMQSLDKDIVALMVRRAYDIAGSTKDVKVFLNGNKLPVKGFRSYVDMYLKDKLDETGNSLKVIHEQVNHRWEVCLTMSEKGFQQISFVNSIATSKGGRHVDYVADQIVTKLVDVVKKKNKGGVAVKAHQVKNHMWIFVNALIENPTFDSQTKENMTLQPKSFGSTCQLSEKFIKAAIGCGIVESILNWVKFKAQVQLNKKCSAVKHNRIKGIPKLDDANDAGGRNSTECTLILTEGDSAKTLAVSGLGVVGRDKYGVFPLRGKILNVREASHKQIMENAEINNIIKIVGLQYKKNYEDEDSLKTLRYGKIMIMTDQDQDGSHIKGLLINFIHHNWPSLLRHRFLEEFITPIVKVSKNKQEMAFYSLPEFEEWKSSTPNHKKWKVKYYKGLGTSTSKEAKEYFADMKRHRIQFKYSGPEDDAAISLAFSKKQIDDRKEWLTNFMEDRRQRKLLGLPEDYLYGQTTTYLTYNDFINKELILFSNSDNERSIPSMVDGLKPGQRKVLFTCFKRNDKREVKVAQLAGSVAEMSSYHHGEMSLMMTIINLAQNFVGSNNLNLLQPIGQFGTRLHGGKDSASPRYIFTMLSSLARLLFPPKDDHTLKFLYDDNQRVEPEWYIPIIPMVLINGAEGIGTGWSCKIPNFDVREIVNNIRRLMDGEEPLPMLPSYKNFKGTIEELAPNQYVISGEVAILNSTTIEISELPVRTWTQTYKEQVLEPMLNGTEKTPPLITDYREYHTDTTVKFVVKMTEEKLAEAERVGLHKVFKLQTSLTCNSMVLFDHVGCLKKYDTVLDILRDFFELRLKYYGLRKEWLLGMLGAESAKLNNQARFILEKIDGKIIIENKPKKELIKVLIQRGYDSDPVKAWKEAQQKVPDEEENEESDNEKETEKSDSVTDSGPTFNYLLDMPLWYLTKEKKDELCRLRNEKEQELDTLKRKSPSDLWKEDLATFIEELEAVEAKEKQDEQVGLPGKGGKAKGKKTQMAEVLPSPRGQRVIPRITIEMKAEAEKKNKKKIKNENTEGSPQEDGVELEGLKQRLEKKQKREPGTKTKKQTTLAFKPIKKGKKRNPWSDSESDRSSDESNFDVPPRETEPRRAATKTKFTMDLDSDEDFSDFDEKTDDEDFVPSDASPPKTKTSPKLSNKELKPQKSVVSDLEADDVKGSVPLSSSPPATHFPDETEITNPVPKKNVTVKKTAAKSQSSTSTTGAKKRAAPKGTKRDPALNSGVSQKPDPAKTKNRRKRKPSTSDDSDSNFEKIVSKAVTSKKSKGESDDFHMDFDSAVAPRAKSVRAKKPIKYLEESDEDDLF

Question: With `O=c1c2cc(Cl)ccc2sc2c(N3CCNCC3)nc3ccccc3c12` [Compound 7, 10-Chloro-6-(piperazin-1-yl)-12H-thiochromeno[2,3-c]quinolin-12-one] as the molecule, how does the “inhibitory effect in TOP I activity assay compared with CPT” value (TOP I (Topoisomerase I) [1]) read?
Answer: The value was “more potent inhibitory effects than CPT”.

Question: What about the IC50 ([2]; five different concentrations, TopoGEN TG2005H, TG-2000H-1, read-out: IC50 value, TOP II mediated supercoiled DNA relaxation) of the same molecule?
Answer: Its IC50 is ~10 µM.

Question: What about the “inhibitory effect in TOP II relaxation assay compared with VP-16” value ([2]; primary assay at 25 and/or 50 μM) of the same molecule?
Answer: The value was “more potent inhibitory effects than the positive agent VP-16”.

Question: And the melting point?
Answer: The melting point was 211 to 213 °C.

Question: And the IC50 (TOP I (Topoisomerase I) [3])?
Answer: The IC50 was ~10 µM.
